# Source: paper PMC5907398, “Inhibition of Acetylcholinesterase and Butyrylcholinesterase by a Plant Secondary Metabolite Boldine” (BioMed Research International, 2018)
# pIC50: −log10 of the molar value.
# How the values were obtained:
# [1] = molecular target: T1, Butyrylcholinesterase (BChE) (Homo sapiens, UniProt P06276); assay: Ellman spectrophotometric assay with butyrylthiocholine, Dixon plot; assay type: biochemical; settings: read-out: IC50 (μmol/l) by spectrophotometry
# T1 construct: from human serum
# T1 sequence (P06276 29-602): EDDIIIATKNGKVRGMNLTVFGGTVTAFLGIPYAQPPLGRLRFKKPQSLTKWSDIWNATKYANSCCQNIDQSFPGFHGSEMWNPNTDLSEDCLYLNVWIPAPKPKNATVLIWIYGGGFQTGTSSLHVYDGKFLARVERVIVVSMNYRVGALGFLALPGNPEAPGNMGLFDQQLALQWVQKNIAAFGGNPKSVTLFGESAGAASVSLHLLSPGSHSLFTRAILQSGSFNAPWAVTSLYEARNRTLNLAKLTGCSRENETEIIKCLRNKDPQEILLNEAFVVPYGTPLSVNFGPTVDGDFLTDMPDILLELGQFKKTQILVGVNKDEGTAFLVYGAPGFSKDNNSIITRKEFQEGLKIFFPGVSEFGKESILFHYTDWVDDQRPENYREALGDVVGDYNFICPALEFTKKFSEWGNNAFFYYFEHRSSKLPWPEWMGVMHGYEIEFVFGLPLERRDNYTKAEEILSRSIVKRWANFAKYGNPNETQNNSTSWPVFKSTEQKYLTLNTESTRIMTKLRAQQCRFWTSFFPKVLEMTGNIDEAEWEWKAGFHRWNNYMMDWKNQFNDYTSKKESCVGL
# [2] = molecular target: T2, Acetylcholinesterase (AChE) (Homo sapiens, UniProt P22303); assay: Ellman spectrophotometric assay with acetylthiocholine, Dixon plot; assay type: biochemical; settings: read-out: IC50 (μmol/l) by spectrophotometry
# T2 construct: human, recombinant (expressed in HEK 293 cells)
# T2 sequence (P22303 32-614): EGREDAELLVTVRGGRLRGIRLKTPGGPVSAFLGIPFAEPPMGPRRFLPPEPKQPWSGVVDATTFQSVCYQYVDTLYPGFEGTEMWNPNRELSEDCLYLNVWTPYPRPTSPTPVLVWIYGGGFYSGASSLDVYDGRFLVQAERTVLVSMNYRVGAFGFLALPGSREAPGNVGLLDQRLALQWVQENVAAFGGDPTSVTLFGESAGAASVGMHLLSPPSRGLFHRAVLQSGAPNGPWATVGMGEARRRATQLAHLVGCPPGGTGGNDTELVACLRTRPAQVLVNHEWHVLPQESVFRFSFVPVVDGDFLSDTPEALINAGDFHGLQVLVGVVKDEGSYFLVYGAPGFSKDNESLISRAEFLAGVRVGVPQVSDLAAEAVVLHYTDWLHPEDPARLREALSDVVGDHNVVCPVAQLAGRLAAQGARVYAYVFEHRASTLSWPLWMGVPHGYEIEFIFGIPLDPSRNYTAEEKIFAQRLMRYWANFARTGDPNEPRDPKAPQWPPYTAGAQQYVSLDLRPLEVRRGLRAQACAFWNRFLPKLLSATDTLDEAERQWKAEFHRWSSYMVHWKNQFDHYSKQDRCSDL
smiles,measurement,setting,value
"COc1cc2c(cc1O)C[C@H]1c3c(cc(O)c(OC)c3-2)CCN1C [boldine, (S)-2,9-dihydroxy-1,10-dimethoxy-aporphine]",pIC50,[1],3.49
same,pIC50,[2],3.43
